Measurements published in PMC9506044, “Identification of Protosappanoside D from Caesalpinia decapetala and Evaluation of Its Pharmacokinetic, Metabolism and Pharmacological Activity” (Molecules, 2022).
“Also recorded” adds a separate entry of the source. Read-outs that look alike come from different tables or passages of the source.

What was measured:
[1] = Metabolites identification in rat plasma (UHPLC/Q Exactive Plus MS); format: in vivo, Sprague-Dawley rats; settings: PTD 27.3 mg/kg by gavage twice daily for 3 d, 2 h after last administration
Procedure: To investigate the PTD metabolites, Sprague-Dawley rats were randomly divided into two groups with six rats in each group. PTD was continuously administered by gavage twice daily for 3 d at a dose of 27.3 mg/kg. Blood was collected from the rat femoral artery 2 h after the last administration, centrifuged at 6000 rpm at 4 °C for 6 min, and 100 μL of plasma was separated and frozen at −20 °C until analysis.
Qualitative analysis of metabolites was conducted on a Vanquish horizon (Thermo Scientific, Waltham, MA, USA) and combined with a Q Exactive Plus Orbitrap MS (QE Plus, Thermo Scientific, USA) system. The separation of PTD and its metabolites was achieved on a Hypersil gold column (2.1 × 150 mm, i.d., 1.9 μm). The mobile phase consisted of water containing 0.1% formic acid (B) and acetonitrile containing 0.1% formic acid (A). The gradient elution program was set as follows: 0–2 min, 5% A; 2–3 min, 5~25% A; 3–6 min, 25~40% A; 6–13 min, 40~95% A; 13–14 min, 95~95% A; 14–15 min, 95~5% A; 15–18 min, 5~5% A; flow rate, 0.3 mL/min. The MS unit parameters were set as follows: the range of data acquisition was 150–1000 m/z, electrospray voltage was 2.5 kV(−), 3.5 kV(+), solvent removal gas flow rate was 8 L/min, and desolvent gas temperature was 320 °C. Acquisition and processing were conducted using the Xcalibur 4.2 software (Thermo Fisher Scientific, USA) and Compound Discoverer 3.2 (Thermo, USA).
A 600 μL aliquot of each plasma sample was transferred into a 5 mL centrifuge tube, 300 μL of 2% formic acid solution and 2.4 mL of methanol was added before vortexing for 2 min. This was followed by sonication in an ultrasonic machine for 10 min, and centrifugation at 13,225× g for 10 min. The supernatant was then placed in a centrifuge tube and evaporated to dryness under a stream of nitrogen at 37 °C. The residues were dissolved in 200 μL of 50% methanol and centrifuged at 13,225× g for 10 min, and 1 μL of the solution was injected into the QE system.

[2] = system: RAW264.7 cells; assay: MTS cell viability assay on RAW264.7 cells; format: cell-based; settings: 24 h treatment
Procedure: (§1) RAW264.7 cells, obtained from American Type Culture Collection (ATCC, Manassas, VA, USA), were cultured in Dulbecco’s modified Eagle’s medium (DMEM) (Life Technologies, Grand Island, NY, USA) supplemented with 10% fetal bovine serum (FBS) and 1% penicillin-streptomycin (Grand Island, NY, USA). The cultures were incubated at 37 °C in a humidified atmosphere containing 5% CO2.
Cell viability was determined using the MTS cell viability assay kit. RAW264.7 cells were cultured at a density of 1 × 10^5 cells per well in 96-well plates by the treatment with various concentrations of PTD and PTB, respectively. After 24 h, 5 µL MTS was added to each well and incubated for 3 h. The plates were then read at 490 nm using a microplate reader.

[3] = system: LPS-stimulated RAW264.7 cells; assay: Secretion of TNF-α, IL-1β and IL-6 by LPS-induced RAW264.7 cells (ELISA); format: cell-based; settings: 200 μmol/L, LPS 1 μg/mL, 24 h, compared to the model group
Procedure: as §1
RAW264.7 cells (1 × 10^5 cells/well in a 96-well plate) were treated with PTD, PTB (200 μmol/L) and stimulated by LPS (1 μg/mL) for 24 h. As a positive control, the impacts of Dex on LPS-induced RAW264.7 cells were also determined parallelly. The supernatants were then collected, and the accumulated NO level was determined using Griess reagent. The concentrations of TNF-α, IL-6 and IL-1β in conditioned media were measured using enzyme-linked immunosorbent assay (ELISA) according to the supplier’s instructions.

[4] = Pharmacokinetic study in rats after oral and intravenous administration of PTD (UPLC-MS/MS, plasma); format: in vivo; settings: Sprague-Dawley; for AUC(0-inf) / AUC(0-t) / Cmax / MRT last / MRT inf / half-life / Tmax: rat plasma; for MRT last: read-out: MRT(0–t); for MRT inf: read-out: MRT(0–∞); for half-life: read-out: t1/2z (converted)
Procedure: Specific pathogen-free Sprague-Dawley rats (230 ± 10 g) were purchased from Changsha Tianqin Biotechnology Co., Ltd. (Changsha, China; certificate no. SCXK (Xiang) 2014-0010). Before starting the experiments, the rats were allowed one week of acclimatization in the animal quarters under air conditioning (25 ± 1 °C) and an automatically controlled photoperiod of 12 h of light daily. They were fed with standard rodent chow and tap water ad libitum. Rats were fasted for 12 h before the start of the experiment but were free to drink water. All experiments were approved by the Animal Ethics Committee of Guizhou Medical University and conducted in accordance with the guidelines of the Committee on the Care and Use of Laboratory Animals in China.
For the pharmacokinetic study, 12 rats were randomly divided into two groups, with 6 rats in each group. In the oral administration group, PTD was intragastrically administered to the rats at a dose of 27.3 mg/kg. For intravenous administration, PTD was injected at a dose of 9.1 mg/kg via the tail vein. Blood samples (0.3 mL) were collected directly from the caudal vein using anticoagulant centrifugal tubes at 0.083, 0.167, 0.33, 0.5, 0.75, 1, 1.5, 2, 4, 6, 9, 12 and 24 h after intravenous and oral administration, respectively. The blood sample was centrifuged at 6000 rpm for 6 min, and the supernatant plasma was transferred into a new clean tube and stored at −80 °C prior to further use.
The UPLC-MS/MS system consisted of an ACQUITY I-Class UPLC system and an XEVO TQ-S triple-quadrupole tandem mass spectrometer (Waters Corp., Milford, MA, USA) equipped with an ESI source. Chromatographic separation was performed using a UPLC BEN C18 column (2.1 × 50 mm, […]; Waters Corp., Milford, MA, USA) at 40 °C. The mobile phase consisted of water containing 0.2% formic acid (B) and acetonitrile containing 0.2% formic acid (A) delivered at 0.3 mL/min as a gradient as follows: 0–0.5 min, 10% A; 0.5–3 min, 90% A; 3–4 min, 90% A; 4–4.5 min, 10% A; 4.5–5 min, 10% A. Waters XEVO TQ-S triple-quadrupole mass spectrometer equipped with an ESI source was used for the mass analysis and detection. The main working parameters were set as follows: source temperature, 120 °C; desolvation temperature, 350 °C; and nebuliser gas (N2), 650 L/h. The scan time for all analytes was set at 0.2 s and acquisition and processing were conducted on a Micromass Masslynx4.1.
A 100 μL aliquot of each plasma sample was transferred into a 1.5 mL centrifuge tube, and 50 μL of 2% formic acid solution was added before vortexing for 30 s. Subsequently, the internal standard (IS) (50 μL of 20 ng/mL puerarin) and 400 μL of methanol were added and vortexed for 1 min. For subsequent treatment methods were the same as mentioned in the above section (4.7.1); finally, 1 μL of the solution was injected into the UPLC-MS/MS system.
Compound discoverer 3.2 was used for the analysis of metabolites of PTD; WinNonlin was used for the analysis of pharmacokinetic parameters, and Graphpad 8.2 was used for the illustrations. Data are expressed as mean ± SD. Statistical analysis was performed using the Statistical Product and Service Solutions software package (SPSS 22.0, SPSS Inc., Chicago, IL, USA). The results were analyzed using one-way ANOVA and bioavailability (F) was calculated according to the equation reported in He et al..

[5] = Stability of the analytes in rat plasma under various storage conditions; format: in vitro ADME
Procedure: The stability of analytes in rat plasma was assessed using QC samples at low, medium and high concentrations (n = 5 for each concentration level) under three conditions: (1) at room temperature for 24 h; (2) refrigerated at 4 °C for 24 h; and (3) three freeze-thaw cycles.

[6] = po, intragastric administration of PTD 27.3 mg/kg
[7] = rat, plasma, po, 27.3 mg/kg, intragastric administration of PTD 27.3 mg/kg
[8] = intravenous administration of PTD 9.1 mg/kg

Row | SMILES | Identification (metabolic pathway from PTD) [1] | concentration with no cytotoxicity to RAW264.7 cells [2] | secretion of IL-1β [3] | secretion of IL-6 [3] | secretion of TNF-α [3] | AUC(0-inf) [4, 6] | AUC(0-t) [4, 6] | Cmax [4, 6] | MRT last [4, 6] | MRT inf [4, 6] | half-life [4, 6] | Tmax [4, 7] | AUC(0-inf) [4, 8] | AUC(0-t) [4, 8] | MRT last [4, 8] | MRT inf [4, 8] | half-life [4, 8] | also measured
1 | COc1ccc2c(c1)OC(CO)=Cc1cc(O)c(O)cc1-2 [M2] | Dealkylation, Dehydration | – | – | – | – | – | – | – | – | – | – | – | – | – | – | – | – | –
2 | COC1=CC=C(c2cc(O)c(O)cc2C#CC=O)C(=O)C1 [M3] | Dealkylation, Dehydration, Desaturation | – | – | – | – | – | – | – | – | – | – | – | – | – | – | – | – | –
3 | COC1(C(=O)O)COc2cc(O[C@@H]3O[C@H](CO)[C@@H](O)[C@H](O)[C@H]3O)ccc2-c2cc(O)c(O)cc2C1 (stereo partly shown) [M4] | Desaturation, Oxidation, Methylation | – | – | – | – | – | – | – | – | – | – | – | – | – | – | – | – | –
4 | OCC1(O)COc2cc(O)ccc2-c2cc(O)c(O)cc2C1 (stereo not shown) [PTB, protosappanin B, reference compound] | desugarization | below 300 μmol/L | significantly reduced; also recorded: significantly downregulated | significantly reduced; also recorded: significantly downregulated | significantly reduced; also recorded: significantly downregulated | 204 ± 43.9 ng·h/mL | 179 ± 45 ng·h/mL | 31.1 ± 10.5 ng/mL | 7.41 ± 0.77 h | 11.1 ± 2.32 h | 467 ± 95.4 min | 85.2 ± 29.4 min | 230 ± 71.9 ng·h/mL | 202 ± 59.5 ng·h/mL | 6.45 ± 2.15 h | 10.5 ± 3.88 h | 407 ± 161 min | Measured Concentration (Mean ± SD) ([5]; 4 °C for 24 h, nominal 2.51 ng/mL): 2.32 ± 0.11 ng/mL; Measured Concentration (Mean ± SD) ([5]; 4 °C for 24 h, nominal 20.08 ng/mL): 24.62 ± 1.12 ng/mL; Measured Concentration (Mean ± SD) ([5]; 4 °C for 24 h, nominal 251 ng/mL): 223.94 ± 15.73 ng/mL; Measured Concentration (Mean ± SD) ([5]; Room temperature for 24 h, nominal 2.51 ng/mL): 2.17 ± 0.13 ng/mL; Measured Concentration (Mean ± SD) ([5]; Room temperature for 24 h, nominal 20.08 ng/mL): 21.81 ± 1.46 ng/mL; Measured Concentration (Mean ± SD) ([5]; Room temperature for 24 h, nominal 251 ng/mL): 244.31 ± 8.62 ng/mL; Measured Concentration (Mean ± SD) ([5]; three freeze-thaw cycles, nominal 2.51 ng/mL): 2.68 ± 0.03 ng/mL; Measured Concentration (Mean ± SD) ([5]; three freeze-thaw cycles, nominal 20.08 ng/mL): 19.43 ± 1.08 ng/mL; Measured Concentration (Mean ± SD) ([5]; three freeze-thaw cycles, nominal 251 ng/mL): 259.84 ± 23.13 ng/mL
5 | OCC1OC(Oc2ccc3c(c2)OCC(O)(CO)Cc2cc(O)c(O)cc2-3)C(O)C(O)C1O [PTD, protosappanin B-3-O-β-D-glucoside] | – | below 200 μmol/L | downregulate; also recorded: significantly reduced; also recorded: significantly downregulated | downregulate; also recorded: significantly reduced; also recorded: significantly downregulated | downregulate; also recorded: significantly reduced; also recorded: significantly downregulated | 405 ± 224 ng·h/mL | 382 ± 211 ng·h/mL | 250 ± 176 ng/mL | 3.06 ± 0.63 h | 4.15 ± 1.09 h | 208 ± 46.8 min | ~29.4 min | 19700 ng·h/mL | 19400 ng·h/mL | 1.8 ± 0.5 h | 2.4 ± 0.83 h | 219 ± 75.6 min | bioavailability ([4]; rat, plasma, oral, 27.3 mg/kg, rat, oral 27.3 mg/kg vs intravenous 9.1 mg/kg): 0.65%; Measured Concentration (Mean ± SD) ([5]; 4 °C for 24 h, nominal 5.01 ng/mL): 4.96 ± 0.65 ng/mL; Measured Concentration (Mean ± SD) ([5]; 4 °C for 24 h, nominal 250.5 ng/mL): 236.32 ± 13.98 ng/mL; Measured Concentration (Mean ± SD) ([5]; 4 °C for 24 h, nominal 15,030 ng/mL): 15,122.74 ± 959.18 ng/mL; Measured Concentration (Mean ± SD) ([5]; Room temperature for 24 h, nominal 5.01 ng/mL): 5.61 ± 0.32 ng/mL; Measured Concentration (Mean ± SD) ([5]; Room temperature for 24 h, nominal 250.5 ng/mL): 241.97 ± 8.73 ng/mL; Measured Concentration (Mean ± SD) ([5]; Room temperature for 24 h, nominal 15,030 ng/mL): 15,135.44 ± 1324.59 ng/mL; Measured Concentration (Mean ± SD) ([5]; three freeze-thaw cycles, nominal 5.01 ng/mL): 5.23 ± 0.58 ng/mL; Measured Concentration (Mean ± SD) ([5]; three freeze-thaw cycles, nominal 250.5 ng/mL): 260.48 ± 17.36 ng/mL; Measured Concentration (Mean ± SD) ([5]; three freeze-thaw cycles, nominal 15,030 ng/mL): 14,844.73 ± 346.61 ng/mL
